For one assay, the target named is T1, mSlo3 (Mus musculus, UniProt O54982, V141G).
T1 construct: A full-length mSlo3 cDNA was cloned into pBSC-MXT; expressed in transfected cells; host or cells: Xenopus oocytes (cRNA injection)
T1 sequence (O54982 with tags, fused parts or gaps V141G limits assumed): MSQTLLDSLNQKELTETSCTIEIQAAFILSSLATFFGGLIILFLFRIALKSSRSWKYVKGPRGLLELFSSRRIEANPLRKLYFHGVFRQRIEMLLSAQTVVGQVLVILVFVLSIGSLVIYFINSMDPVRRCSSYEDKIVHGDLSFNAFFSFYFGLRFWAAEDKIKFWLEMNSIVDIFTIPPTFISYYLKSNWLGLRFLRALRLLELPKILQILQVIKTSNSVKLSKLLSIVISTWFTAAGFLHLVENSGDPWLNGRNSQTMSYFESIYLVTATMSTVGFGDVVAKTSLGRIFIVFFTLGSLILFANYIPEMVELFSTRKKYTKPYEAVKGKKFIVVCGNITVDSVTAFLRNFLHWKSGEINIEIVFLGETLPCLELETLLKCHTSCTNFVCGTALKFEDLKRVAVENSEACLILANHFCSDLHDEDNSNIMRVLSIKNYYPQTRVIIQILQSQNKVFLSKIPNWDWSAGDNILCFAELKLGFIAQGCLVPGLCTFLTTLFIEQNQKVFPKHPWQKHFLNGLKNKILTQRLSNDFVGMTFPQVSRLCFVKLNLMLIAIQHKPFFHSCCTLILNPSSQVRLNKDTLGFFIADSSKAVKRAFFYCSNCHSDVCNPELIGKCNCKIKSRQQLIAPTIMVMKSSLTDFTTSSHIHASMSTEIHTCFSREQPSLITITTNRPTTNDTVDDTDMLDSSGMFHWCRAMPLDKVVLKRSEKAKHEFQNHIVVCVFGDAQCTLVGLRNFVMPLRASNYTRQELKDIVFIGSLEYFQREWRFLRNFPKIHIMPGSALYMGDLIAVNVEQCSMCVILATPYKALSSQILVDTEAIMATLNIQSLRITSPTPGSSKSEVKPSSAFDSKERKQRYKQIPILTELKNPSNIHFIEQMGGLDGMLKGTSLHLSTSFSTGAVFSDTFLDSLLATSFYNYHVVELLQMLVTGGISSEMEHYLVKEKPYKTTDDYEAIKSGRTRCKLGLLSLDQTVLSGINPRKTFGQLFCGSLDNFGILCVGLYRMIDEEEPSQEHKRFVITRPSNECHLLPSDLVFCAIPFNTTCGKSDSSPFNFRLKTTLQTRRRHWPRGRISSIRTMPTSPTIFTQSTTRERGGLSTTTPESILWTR
As to the kind of experiment: mSlo3 currents expressed in Xenopus oocytes, electrophysiology. The assay is classed as cell-based. The method, then:
A full-length mSlo3 cDNA was cloned into pBSC-MXT, a Bluescript-derived plasmid (Stratagene) containing Xenopus β-globin 5′ and 3′ untranslated sequences. cDNA expression constructs were linearized at a unique Not-I site, and capped cRNA was synthesized using the mMessage mMachine (Ambion). Reactions were precipitated with LiCl to remove the DNA template and resuspended in nuclease-free water at a final concentration of approximately 1 mg/ml. Oocytes were prepared for injection as previously described (Wei et al., Science 248:599-603 (1990)), except for the use of a Drummond nanojector. Approximately 50 nl of RNA in nuclease-free water was injected into each oocyte. Oocytes were incubated in ND96 medium (Wei et al., 1994, supra) and analyzed 1-8 days after injection.
cRNA (40 nl at approximately […]) was injected into mature Xenopus oocytes; recordings were made 1-8 days later. For whole cell-recording, medium nd96 (concentrations in mM; 96 NaCl, 2 KCl, 1.8 CaCl2, 1 MgCl2, 5 HEPES, pH 7.5) supplemented with 1 mM DIDS (to block endogenous chloride currents) employed as bath solution, or modified as noted in figure legends. Patches were perfused with either 0 Ca^2+ EGTA solutions (160 K gluconate, 34 KOH, 10 HEPES, and 10 EGTA) or Ca^2+-containing (184 K gluconate, 10 KOH, 10 HEPES, 200 mM hemicalcium gluconate) solutions. HCl was used to adjust pH. Pipet solution contained 0.5 K gluconate, 0.5 KCl, 1.1 KOH, 10 HEPES, 159 Na gluconate, and 2 hemiMg gluconate, pH 7.1. Recording. Two-electrode voltage clamp was carried out with a TEV-200 amplifier (Dagan). Patch currents were recorded on either an Axopatch 1B or 200A amplifier (Axon), and digitized at either 3.4, 5 or 10 kHz. Data acquisition and analysis programs were CCURRENT and CQUANT (Dr. Keith Baker) or pClamp6 (Axon). Recordings were made at room temperature except tail currents which were recorded at 11° C. using a Peltier device (Cambion).

A further assay has as its target mSlo1 (Mus musculus, UniProt Q08460). The settings on record: mSlo1, comparison value; read-out: EC50 (sensitivity to TEA); cited from earlier work.

Sequence of mSlo1 (Q08460 whole entry): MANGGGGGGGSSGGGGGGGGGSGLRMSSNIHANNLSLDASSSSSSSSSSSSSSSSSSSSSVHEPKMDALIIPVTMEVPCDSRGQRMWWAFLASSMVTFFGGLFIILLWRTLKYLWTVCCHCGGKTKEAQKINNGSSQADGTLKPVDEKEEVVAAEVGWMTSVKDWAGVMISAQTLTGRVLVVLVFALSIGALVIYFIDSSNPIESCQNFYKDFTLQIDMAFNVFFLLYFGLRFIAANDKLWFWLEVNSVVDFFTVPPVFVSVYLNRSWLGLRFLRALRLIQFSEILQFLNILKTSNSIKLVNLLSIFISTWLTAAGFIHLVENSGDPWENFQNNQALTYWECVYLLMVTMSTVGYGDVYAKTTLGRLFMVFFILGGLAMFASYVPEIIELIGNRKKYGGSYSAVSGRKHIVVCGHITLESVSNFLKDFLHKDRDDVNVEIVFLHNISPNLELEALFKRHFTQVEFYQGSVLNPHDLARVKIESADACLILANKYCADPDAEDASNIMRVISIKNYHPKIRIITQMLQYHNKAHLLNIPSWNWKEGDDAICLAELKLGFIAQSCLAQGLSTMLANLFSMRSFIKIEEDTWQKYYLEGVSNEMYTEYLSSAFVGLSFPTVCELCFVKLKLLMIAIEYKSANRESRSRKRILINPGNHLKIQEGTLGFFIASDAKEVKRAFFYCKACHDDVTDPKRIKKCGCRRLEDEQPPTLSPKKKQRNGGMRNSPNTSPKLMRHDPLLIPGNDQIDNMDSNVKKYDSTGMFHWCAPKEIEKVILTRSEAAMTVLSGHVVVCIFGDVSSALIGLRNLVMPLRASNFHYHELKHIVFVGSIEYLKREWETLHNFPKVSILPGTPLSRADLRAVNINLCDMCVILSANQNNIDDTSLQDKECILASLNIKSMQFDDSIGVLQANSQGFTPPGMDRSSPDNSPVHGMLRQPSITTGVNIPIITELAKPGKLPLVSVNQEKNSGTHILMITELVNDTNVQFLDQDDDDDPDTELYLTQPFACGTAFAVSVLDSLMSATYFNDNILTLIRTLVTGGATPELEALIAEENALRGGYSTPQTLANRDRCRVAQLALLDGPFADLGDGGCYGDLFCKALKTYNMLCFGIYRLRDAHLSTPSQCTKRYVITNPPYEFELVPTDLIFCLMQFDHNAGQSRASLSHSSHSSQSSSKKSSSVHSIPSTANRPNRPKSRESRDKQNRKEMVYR

With `CC[N+](CC)(CC)CC` [TEA], the EC50 – broadly, the midpoint of the concentration-response curve – is about 100 mM on mSlo3 (mSlo3 expressed in Xenopus oocytes, read-out: EC50 (sensitivity to TEA)) and under 200 µM on mSlo1. For the compound charybdotoxin, the “effect on mSlo3 currents” value with mSlo3 (charybdotoxin 50 nM) is reported as “did not affect”. For the compound “iberiotoxin (QFTDVDCSVSKECWSVCKDLFGVDRGKCMGKKCRCYQ)”, the “effect on mSlo3 currents” value with mSlo3 (iberiotoxin 20 nM) is given as “did not affect”.
